From PubChem BioAssay AID330 (DTP/NCI, 2004)
Where “and” joins values, the source holds several entries; their conditions need not be identical. Equal values may be shown once. Toxic doses and inconclusive results are not listed. Rule for the calls: active = survival T/C of 150% or more; inactive = T/C below 125% in these data.

System: P388 leukemia ip, CD2F1 mice, survival T/C
Test: NCI In Vivo Anticancer Drug Screen. Data for tumor model P388 Leukemia (intraperitoneal) in CD2F1 (CDF1) mice
Conditions: endpoint: median survival time, higher = longer survival
How it was run: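 Mice carrying the transplanted tumor received test compound or vehicle. Survival was recorded in each group, and the value is the treated-group measurement divided by that of the vehicle-treated control group.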

[1] = dose: 50.0 mg/kg/injection, schedule: Q01DX005 (ip), vehicle: Klucel (hydroxypropylcellulose) (HPC)
[2] = dose: 100.0 mg/kg/injection, schedule: Q01DX005 (ip), vehicle: Klucel (hydroxypropylcellulose) (HPC)
[3] = dose: 200.0 mg/kg/injection, schedule: Q01DX005 (ip), vehicle: Klucel (hydroxypropylcellulose) (HPC)
[4] = dose: 50.0 mg/kg/injection, schedule: Q01DX009 (ip), vehicle: saline with Tween-80
[5] = dose: 100.0 mg/kg/injection, schedule: Q01DX009 (ip), vehicle: saline with Tween-80
[6] = dose: 200.0 mg/kg/injection, schedule: Q01DX009 (ip), vehicle: saline with Tween-80

Measured: T/C

C1CCC2[N-]CC3CCCCC3[N-]CC3CCCCC3[N-]CC3CCCCC3[N-]CC2C1.[Cu] (stereo not drawn)
inactive: dose: 0.39 mg/kg/injection, schedule: Q01DX009 (ip), vehicle: saline 105 % of control | dose: 0.78 mg/kg/injection, schedule: Q01DX009 (ip), vehicle: Klucel (hydroxypropylcellulose) (HPC) 121 % of control | dose: 0.78 mg/kg/injection, schedule: Q01DX009 (ip), vehicle: saline 123 % of control | dose: 1.56 mg/kg/injection, schedule: Q01DX009 (ip), vehicle: saline 123 % of control | dose: 1.56 mg/kg/injection, schedule: Q01DX009 (oral), vehicle: Klucel (hydroxypropylcellulose) (HPC) 89 % of control | dose: 3.12 mg/kg/injection, schedule: Q01DX009 (oral), vehicle: Klucel (hydroxypropylcellulose) (HPC) 99 % of control | dose: 6.25 mg/kg/injection, schedule: Q01DX009 (oral), vehicle: Klucel (hydroxypropylcellulose) (HPC) 99 % of control | dose: 12.5 mg/kg/injection, schedule: Q01DX009 (ip), vehicle: Klucel (hydroxypropylcellulose) (HPC) 119 % of control | dose: 12.5 mg/kg/injection, schedule: Q01DX009 (oral), vehicle: Klucel (hydroxypropylcellulose) (HPC) 93 % of control and 98 % of control | dose: 25.0 mg/kg/injection, schedule: Q01DX009 (oral), vehicle: Klucel (hydroxypropylcellulose) (HPC) 106 % of control and 91 % of control | dose: 50.0 mg/kg/injection, schedule: Q01DX009 (oral), vehicle: Klucel (hydroxypropylcellulose) (HPC) 93 % of control | dose: 100.0 mg/kg/injection, schedule: Q01DX009 (oral), vehicle: Klucel (hydroxypropylcellulose) (HPC) 93 % of control and 98 % of control | dose: 200.0 mg/kg/injection, schedule: Q01DX009 (oral), vehicle: Klucel (hydroxypropylcellulose) (HPC) 88 % of control

Cc1c(Cl)cccc1NC(=O)/C=C/C(=O)O
inactive: dose: 100.0 mg/kg/injection, schedule: Q04DX003 (ip), vehicle: saline with Tween-80 90 % of control | dose: 200.0 mg/kg/injection, schedule: Q04DX003 (ip), vehicle: saline with Tween-80 95 % of control | dose: 400.0 mg/kg/injection, schedule: Q04DX003 (ip), vehicle: saline with Tween-80 90 % of control

O=C(O)c1c(Cl)nc2n1CCS2
inactive: dose: 50.0 mg/kg/injection, schedule: Q01DX001 (ip), vehicle: Klucel (hydroxypropylcellulose) (HPC) 97 % of control | dose: 100.0 mg/kg/injection, schedule: Q01DX001 (ip), vehicle: Klucel (hydroxypropylcellulose) (HPC) 101 % of control | dose: 200.0 mg/kg/injection, schedule: Q01DX001 (ip), vehicle: Klucel (hydroxypropylcellulose) (HPC) 104 % of control

COc1ccc(OC)c2c1CC(C(C)=O)CC2=O (stereo not drawn)
inactive: dose: 12.5 mg/kg/injection, schedule: Q01DX009 (ip), vehicle: other 99 % of control | dose: 25.0 mg/kg/injection, schedule: Q01DX009 (ip), vehicle: other 112 % of control | dose: 50.0 mg/kg/injection, schedule: Q01DX009 (ip), vehicle: other 105 % of control | dose: 100.0 mg/kg/injection, schedule: Q01DX009 (ip), vehicle: other 108 % of control | dose: 200.0 mg/kg/injection, schedule: Q01DX009 (ip), vehicle: other 107 % of control

COc1ccc(-c2cc(O)c3c(c2N)C(=O)c2c(O)ccc(N)c2C3=O)cc1
inactive: [1] 86 % of control | [2] 90 % of control | [3] 90 % of control

O=C1CCSC(=S)N1c1ccc2c(c1)OCO2
inactive: dose: 50.0 mg/kg/injection, schedule: Q01DX009 (ip), vehicle: suspension in saline 105 % of control | dose: 100.0 mg/kg/injection, schedule: Q01DX009 (ip), vehicle: suspension in saline 90 % of control | dose: 200.0 mg/kg/injection, schedule: Q01DX009 (ip), vehicle: suspension in saline 98 % of control

CC/C(=N/NS(=O)(=O)c1ccc(C)cc1)c1ccc(O)cc1
inactive: dose: 100.0 mg/kg/injection, schedule: Q04DX003 (ip), vehicle: saline 107 % of control | dose: 200.0 mg/kg/injection, schedule: Q04DX003 (ip), vehicle: saline 100 % of control | dose: 400.0 mg/kg/injection, schedule: Q04DX003 (ip), vehicle: saline 98 % of control

CCOC(=O)C(CC)C(O)(c1ccc2c(c1)OCO2)c1cc(OC)c(OC)c(OC)c1 (stereo not drawn)
inactive: [1] 96 % of control | [2] 94 % of control | [3] 93 % of control

C1=C2NNC(c3ccccc3)=C(c3ccccc3)C2=CCC1 (tested in a mixture with another compound)
inactive: dose: 60.0 mg/kg/injection, schedule: Q01DX005 (ip), vehicle: saline with Tween-80 96 % of control | dose: 120.0 mg/kg/injection, schedule: Q01DX005 (ip), vehicle: saline with Tween-80 92 % of control | dose: 240.0 mg/kg/injection, schedule: Q01DX005 (ip), vehicle: saline with Tween-80 91 % of control

CC(C)(C)CC(C)(C)c1ccc(OCc2cccc(F)c2)cc1
inactive: [4] 97 % of control | [5] 97 % of control | [6] 100 % of control

CCCCCCCCCc1cc(CN2CCCCC2)c(O)c(CN2CCCCC2)c1
inactive: dose: 12.5 mg/kg/injection, schedule: Q01DX009 (ip), vehicle: saline 112 % of control | dose: 25.0 mg/kg/injection, schedule: Q01DX009 (ip), vehicle: saline 108 % of control | dose: 50.0 mg/kg/injection, schedule: Q01DX009 (ip), vehicle: saline 102 % of control

CNC(=O)N1CC2CCC(C)(C1)OC2(C)C (stereo not drawn)
inactive: [1] 97 % of control | [2] 100 % of control and 103 % of control | [3] 103 % of control and 106 % of control

CC1(C)Oc2ccc3ccc(=O)oc3c2C(O)C1O (stereo not drawn)
inactive: [1] 97 % of control | [2] 96 % of control | [3] 92 % of control

Cc1ccc2c(N=Nc3ccc(C(=N)N)cc3)ccc(O)c2n1
inactive: dose: 25.0 mg/kg/injection, schedule: Q01DX005 (ip), vehicle: Klucel (hydroxypropylcellulose) (HPC) 104 % of control | [1] 113 % of control | [2] 111 % of control | [3] 105 % of control

S=C(SSC(=S)C1CCCC1=NC1CCCCC1)C1CCCC1=NC1CCCCC1 (stereo not drawn)
inactive: dose: 50.0 mg/kg/injection, schedule: Q01DX009 (ip), vehicle: Klucel (hydroxypropylcellulose) (HPC) 101 % of control | dose: 100.0 mg/kg/injection, schedule: Q01DX009 (ip), vehicle: Klucel (hydroxypropylcellulose) (HPC) 108 % of control | dose: 200.0 mg/kg/injection, schedule: Q01DX009 (ip), vehicle: Klucel (hydroxypropylcellulose) (HPC) 108 % of control

c1ccc2sc(SCCSc3nc4ccccc4s3)nc2c1
inactive: dose: 60.0 mg/kg/injection, schedule: Q01DX005 (ip), vehicle: Klucel (hydroxypropylcellulose) (HPC) 99 % of control | dose: 120.0 mg/kg/injection, schedule: Q01DX005 (ip), vehicle: Klucel (hydroxypropylcellulose) (HPC) 92 % of control | dose: 240.0 mg/kg/injection, schedule: Q01DX005 (ip), vehicle: Klucel (hydroxypropylcellulose) (HPC) 89 % of control

O=C1N/C(=C\c2nc3ccccc3s2)c2ccccc21
inactive: [4] 96 % of control | [5] 90 % of control | [6] 89 % of control

NNS(=O)(=O)c1cc(C(=O)O)cc(C(=O)O)c1
inactive: dose: 100.0 mg/kg/injection, schedule: Q01DX001 (ip), vehicle: saline with Tween-80 109 % of control | dose: 200.0 mg/kg/injection, schedule: Q01DX001 (ip), vehicle: saline with Tween-80 100 % of control | dose: 400.0 mg/kg/injection, schedule: Q01DX001 (ip), vehicle: saline with Tween-80 90 % of control

COc1ccc2c(c1)CSC(c1ccccc1)C2O (stereo not drawn)
inactive: [4] 98 % of control | [5] 93 % of control | [6] 99 % of control

COc1cc(CC2C(CO)OC(=O)C2C(O)c2ccc3c(c2)OCO3)cc(OC)c1OC (stereo not drawn)
inactive: dose: 5.0 mg/kg/injection, schedule: Q04DX002 (ip), vehicle: saline with Tween-80 104 % of control | dose: 10.0 mg/kg/injection, schedule: Q04DX002 (ip), vehicle: saline with Tween-80 104 % of control | dose: 20.0 mg/kg/injection, schedule: Q04DX002 (ip), vehicle: saline with Tween-80 102 % of control
